Assay results reported in patent EP0726903B1, “MATRIX METALLOPROTEASE INHIBITORS” (SYNTEX (U.S.A.) INC., priority 1993, dated 1995).

Experiments:
[1] = test system: bovine PTH induced bone resorption; assay: In vitro fetal rat long bone model of bone resorption (45Ca release); type: cell-based; details: ^45Ca release from fetal rat long bones, Bovine PTH (1-34) at 1x10^-8M, Day 6
Excerpt: An in vitro fetal rat long bone model was used to study the anti-bone resorptive effect of the compounds of formula (I). Bovine PTH was used to induce bone resorption in vitro. The bone resorptive effects were expressed by the amounts of ^45Ca released from the ^45Ca pre-labelled fetal rat long bones into the culture medium. The inhibitory effect of the compounds of formula (I) against bovine PTH induced bone resorption was expressed as mean percent inhibition ± sem.
^45Ca-prelabelled fetal rat long bones (from forearms) were dissected and cultured in Linbro dishes at 37°C overnight BGJb medium, supplemented with lmg/ml BSA. There were five pairs of bones in each group. The compounds of formula (I) were dissolved in ethanol first, then diluted to various concentrations and added simultaneously with Bovine PTH (1-34) at […] on Day 1. […] The assay was terminated on Day 6 with one media change on Day 3.
At the end of each medium change, the ^45Ca present in the culture medium was counted. The remaining bones were digested with 0.1N HCl and the ^45Ca presented in the bone digest was also counted. The results are expressed as % of the total ^45Ca released from each pair of bones. Bovine PTH at 1x10^-8M induces bone resorption to the maximum level which is set as 100% and this concentration was used as standard. The level of base line bone resorption in the presence of medium only was set as 0%. All compound-treated groups were compared with bovine PTH (1-34) at 1x10^-8M.

HFC = biological target: T1, HFC (Homo sapiens, UniProt P03956); assay: In vitro enzyme inhibition assay (fluorescence, thiopeptide substrate), HFC; type: biochemical
T1 sequence (P03956 100-469): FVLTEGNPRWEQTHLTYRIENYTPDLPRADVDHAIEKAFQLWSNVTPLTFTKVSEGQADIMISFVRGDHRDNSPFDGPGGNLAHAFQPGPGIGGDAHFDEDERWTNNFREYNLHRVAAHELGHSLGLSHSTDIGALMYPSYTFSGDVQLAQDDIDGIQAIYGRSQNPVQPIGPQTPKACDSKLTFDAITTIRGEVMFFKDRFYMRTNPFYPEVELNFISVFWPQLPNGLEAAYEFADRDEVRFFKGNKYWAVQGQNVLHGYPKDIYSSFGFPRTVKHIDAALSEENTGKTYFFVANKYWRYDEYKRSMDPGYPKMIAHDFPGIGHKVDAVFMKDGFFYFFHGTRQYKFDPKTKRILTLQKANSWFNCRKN

[2] = test system: release of ^35S-labelled glycosaminoglycans (GAG's) from cartilage explants; assay: Inhibition of release of 35S-labelled glycosaminoglycans from cartilage explants; type: cell-based; details: Bos taurus; bovine knee joint cartilage explants, release induced by rhIL-1-alpha
Protocol: This assay determines if the compounds of formula (I) inhibit the release of ^35S-labelled glycosaminoglycans (GAG's) from cartilage explants.
Small cartilage explants (3 mm diameter) were prepared from freshly sacrificed bovine knee joints and labeled with ^35SO4. ^35S-labelled glycosaminoglycans (GAG's) are released into the culture medium in response to the addition of rhIL-1-alpha, which induces the expression of chondrocyte matrix metalloproteases (MMP's), including stromelysin and collagenase. The percent inhibition of labeled GAG's was corrected for spontaneous release in the absence of rh1L-1-alpha. Results for each group represent the mean ± the S.E.M. for five explants.

STROM. = STROM. (Homo sapiens, UniProt P08254); assay: In vitro enzyme inhibition assay (fluorescence, thiopeptide substrate), STROM.; type: biochemical
Sequence of STROM. (P08254 100-477): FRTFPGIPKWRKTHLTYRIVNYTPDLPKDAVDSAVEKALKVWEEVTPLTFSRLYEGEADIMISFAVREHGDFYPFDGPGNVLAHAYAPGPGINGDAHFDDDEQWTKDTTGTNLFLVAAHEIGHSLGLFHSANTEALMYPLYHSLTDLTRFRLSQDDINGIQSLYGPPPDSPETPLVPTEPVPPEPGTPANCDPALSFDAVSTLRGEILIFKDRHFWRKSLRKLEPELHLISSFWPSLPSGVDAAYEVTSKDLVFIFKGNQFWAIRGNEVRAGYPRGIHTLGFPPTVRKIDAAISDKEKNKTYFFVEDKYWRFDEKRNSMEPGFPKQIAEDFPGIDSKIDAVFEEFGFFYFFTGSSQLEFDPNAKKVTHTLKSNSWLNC

Row | IC50 (HFC) [nM] | IC50 (STROM.) [nM] | IC50 ([1]; 144 h) [µM] | SMILES | IC50 [1] [µM] | EC50 [2] [µM]
1 | – | – | – | COC(=O)c1ccc(NC(=O)[C@H](Cc2c[nH]c3ccccc23)NC(=O)C(CC(=O)NO)CC(C)C)cc1 (single isomer, unassigned) [Compound 3, N-(4-methyl-2-(N"-hydroxycarbamoyl)methylpentanoyl)-L-tryptophan-N'-(4-methoxycarbonylphenyl)carboxamide] | 0.05 | –
2 | – | – | – | COC(=O)c1ccc(NC(=O)[C@H](Cc2c[nH]c3ccccc23)NC(=O)C(CC(=O)NO)CC(C)C)cc1 (single isomer, unassigned) [Compound 4, N-(4-methyl-2-(N"-hydroxycarbamoyl)methylpentanoyl)-L-tryptophan-N'-(4-methoxycarbonylphenyl)carboxamide] | ≥ 5 | –
3 | – | – | – | COC(=O)c1ccc(NC(=O)[C@H](CCSC)NC(=O)C(CC(C)C)CP(=O)(O)CSc2ccc3ccccc3n2)cc1 (stereo partly drawn) [Compound 1, N-(2-(hydroxy)(quinolin-2-ylthiomethyl)phosphinoylmethyl-4-methylpentanoyl)-L-methionine-N'-(4-methoxycarbonylphenyl)carboxamide] | ≥ 5 | –
4 | 8.4 | 1.4 | 0.27 | COC(=O)c1ccc(NC(=O)[C@H](CC(C)C)NC(=O)C(CC(=O)NO)CC(C)C)cc1 (stereo partly drawn) [Compound 2, N-(4-methyl-2-(N"-hydroxycarbamoyl)methylpentanoyl)-L-leucine-N'-(4-methoxycarbonylphenyl)carboxamide] | – | 3.5
